Patent US10196373B2, “Substituted 2-hydroxy-4-(2-(phenylsulfonamido)acetamido)benzoic acid analogs as inhibitors of STAT protein” (University of Central Florida Research Foundation, Inc., priority 2010, dated 2019)
Like-named read-outs stand apart in the source and are kept apart here.

How the values were obtained:
[1] = biological target: STAT3 (Homo sapiens (Human), UniProt P40763); experiment: Fluorescence polarization assay, inhibition of binding to STAT3; settings: inhibition of binding to STAT3 in a fluorescence polarization assay; read-out: Ki (FP)
Sequence of STAT3 (Homo sapiens (Human), UniProt P40763) (P40763 whole entry): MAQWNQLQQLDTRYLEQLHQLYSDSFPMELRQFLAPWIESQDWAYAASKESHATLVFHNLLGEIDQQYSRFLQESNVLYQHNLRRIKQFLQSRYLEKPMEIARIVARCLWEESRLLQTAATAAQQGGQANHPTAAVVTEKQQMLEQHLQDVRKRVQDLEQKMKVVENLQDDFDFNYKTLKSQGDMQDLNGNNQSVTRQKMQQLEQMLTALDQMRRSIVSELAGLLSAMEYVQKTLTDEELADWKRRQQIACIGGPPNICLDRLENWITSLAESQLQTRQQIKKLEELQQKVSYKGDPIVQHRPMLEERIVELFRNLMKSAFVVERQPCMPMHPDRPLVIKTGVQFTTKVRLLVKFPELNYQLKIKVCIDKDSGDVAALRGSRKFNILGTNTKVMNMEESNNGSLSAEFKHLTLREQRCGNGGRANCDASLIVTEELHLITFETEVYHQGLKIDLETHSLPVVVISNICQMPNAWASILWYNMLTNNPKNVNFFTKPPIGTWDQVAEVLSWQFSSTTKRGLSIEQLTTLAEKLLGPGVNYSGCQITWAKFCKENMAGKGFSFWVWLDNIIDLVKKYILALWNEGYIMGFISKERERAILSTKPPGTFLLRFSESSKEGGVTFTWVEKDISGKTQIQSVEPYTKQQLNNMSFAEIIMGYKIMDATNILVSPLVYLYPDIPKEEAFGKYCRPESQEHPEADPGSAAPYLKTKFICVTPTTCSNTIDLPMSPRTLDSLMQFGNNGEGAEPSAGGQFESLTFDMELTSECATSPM
Protocol: The fluorescent polarization experiments were performed on an Infinite M1000 (Tecan, Crailsheim, Germany). All assays were performed in the same buffer conditions of 50 mM NaCl, 10 mM Hepes, pH 7.5, 1 mM EDTA, and 2 mM dithiothreitol. Fluorescent-labelled peptides were kept at a final concentration of 10nM in buffered solution. […] of labelled peptides were added to […] of a 300 nM STAT3 protein solution (provided by SignalChem in 50 mM Tris-HCl, pH 7.5, 150 mM NaCl, 0.25 mM DTT, 0.1 mM PMSF, 25% glycerol and stored at −80° C.). Inhibitory molecules were dissolved in pure DMSO and diluted using buffer solution to produce four final concentrations ([…]). 7.5 μL of the inhibitory molecule solution was mixed with the STAT3 protein and labelled peptide solution in black 384-flat well microplates (Coming), and incubated for 15-30 minutes. The M1000 performed a shaking cycle and then read the plates. IC50′s were derived from the output using the curve-fitting software OriginPro 8 (Northampton, MA). The FP data was modelled by the following equation:
[formula] where X was the concentration of inhibitor and ρwas the corresponding fluorescence at that concentration. The free parameter was half the maximal inhibitory concentration (IC50) and the limiting values was the maximal measured fluorescence polarization (ρ1) and the minimal fluorescence polarization (ρ2). Origin curve fitting software utilizes the Levenberg-Marquardt algorithm and reduced chi-square criterion for convergence. The inhibitor dissociation constant, Ki, was calculated from the derived IC50 values, as per the following formula: […]
Further details of the fluorescence polarization assay are as described previously (Zhang X, et al. (2010) A novel small-molecule disrupts Stat3 SH2domainphosphotyrosine interactions and Stat3-dependent tumor processes. Biochem Pharmacol 79: 1398-1409).

[2] = test system: OCI-AMI.2 cells; experiment: Cell viability, MTS assay; assay type: cell-based
[3] = test system: DU-145 cells; experiment: Cell viability, MTS assay; assay type: cell-based; settings: Homo sapiens, DU-145, 72 hours
Protocol: (§1) To further test activity of these molecules, a whole-cell study involving cancer lines with known abherrant STAT3 expression was conducted. These human cell lines, including prostate cancer (DU145), breast cancer (MDA468), and promyelocytic leukemia (HL-60) were treated with the peptidomimetics and incubated for 72 hours. Disruption of cell viability was measured by MTS assay and IC50 values for the potential inhibitors was determined. OriginPro 8 (Northampton, Mass.) was used to evaluate EC50 using the dose response curve defined as follows:
(§2) [formula] where y is the fraction of death, x is the log of drug concentration. A2 is the top asymptote, A1 is the bottom asymptote, logx0 is the center of the curve, and p is the hill slope.

[4] = test system: HL60 cells; experiment: Cell viability, MTS assay; assay type: cell-based; settings: Homo sapiens, HL-60, HL60, 72 hours
Protocol: as §1, §2

[5] = test system: MDA-468 cells; experiment: Cell viability, MTS assay; assay type: cell-based; settings: Homo sapiens, MDA-468, 72 hours
Protocol: as §1, §2

[6] = biological target: STAT3 (Mus musculus, UniProt P42227); experiment: Stat3 DNA-binding activity, electrophoretic mobility shift assay (EMSA) with nuclear extracts; assay type: biochemical
Sequence of STAT3 (Mus musculus, UniProt P42227) (P42227 2-770 limits assumed): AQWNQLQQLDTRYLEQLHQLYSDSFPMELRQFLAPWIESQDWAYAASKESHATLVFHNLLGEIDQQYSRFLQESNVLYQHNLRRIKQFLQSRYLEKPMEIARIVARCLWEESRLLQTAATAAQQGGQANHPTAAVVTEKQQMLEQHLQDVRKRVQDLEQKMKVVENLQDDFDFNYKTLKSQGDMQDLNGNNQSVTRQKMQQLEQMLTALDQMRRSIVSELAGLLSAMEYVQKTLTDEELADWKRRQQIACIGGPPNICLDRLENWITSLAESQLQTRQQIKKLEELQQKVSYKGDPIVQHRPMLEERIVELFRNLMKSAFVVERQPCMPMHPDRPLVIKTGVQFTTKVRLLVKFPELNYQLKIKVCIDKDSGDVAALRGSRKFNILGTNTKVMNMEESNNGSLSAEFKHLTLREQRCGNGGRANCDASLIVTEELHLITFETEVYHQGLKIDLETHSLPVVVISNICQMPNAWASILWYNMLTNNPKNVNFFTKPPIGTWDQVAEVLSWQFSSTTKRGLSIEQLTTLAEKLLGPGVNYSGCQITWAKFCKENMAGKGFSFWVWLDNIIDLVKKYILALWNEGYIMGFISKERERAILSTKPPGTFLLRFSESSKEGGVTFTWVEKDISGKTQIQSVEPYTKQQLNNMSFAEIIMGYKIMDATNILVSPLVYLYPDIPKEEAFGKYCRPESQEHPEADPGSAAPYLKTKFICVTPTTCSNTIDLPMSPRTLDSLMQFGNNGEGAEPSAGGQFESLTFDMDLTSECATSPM
Protocol: Nuclear extract preparations and electrophoretic mobility shift assay (EMSA) were carried out as previously described (Yang J, et al. (2005) Cancer Res. 65:939-947). […] For direct effect of a test compound on Stat3 DNA-binding activity, nuclear extracts were pre-incubated with the agent for 30 min at room temperature prior to incubation with the radiolabeled probe for 30 min at 30° C. before subjecting to EMSA analysis. […] Cytosolic extract preparation from mammalian cells and luciferase assay previously described (Zhang X, et al. (2010) Biochem Pharmacol 79:1398-1409; Turkson J, et al. (1999) Mol. Cell. Biol. 19:7519-7528; Turkson J, et al. (1998) Mol. Cell. Biol. 18:2545-2552).)

[7] = test system: MV-4-11 cells; experiment: Cell viability in cell lines with constitutive activation of STAT5 (Almar Blue); assay type: cell-based
Protocol: (§3) To determine whether STAT5 inhbitors could be cytotoxic in cell lines that have constitutive activation of STAT5, the cell lines K562 and MV-4-11 were cultured at concentration 1×10^5, to insure that the cells are at the exponential stage of growth, and treated with the different synthesized molecules at concentrations of 10, 20 and 40 μM. Viability were determined using Almar Blue (Invitrogen) in 96-well plate over 3 consecutive days. Fluorescence was quantified using Spectra Max M5 (Molecular Devices).

[8] = test system: K562 cells; experiment: as above; assay type: cell-based
Protocol: as §3

[9] = inhibition of STAT3 activity in an EMSA

IC50 [2] [µM]	IC50 [3] [µM]	IC50 [4] [µM]	IC50 ([7]; Homo sapiens, MV4-11) [µM]	IC50 ([8]; Homo sapiens) [µM]	IC50 [7] [µM]	IC50 [8] [µM]	Structure (SMILES)	Ki [1] [µM]	IC50 [5] [µM]	IC50 [6, 9] [µM]	IC50 [6] [µM]
> 100	> 100	> 100	–	–	–	–	COC(=O)c1ccc(-c2ccc(-c3ccc(CN(C(=O)CN(C)S(=O)(=O)c4ccc(C)cc4)c4ccc(C(=O)O)c(O)c4)cc3)cc2)cc1 [Compound 27NE]	–	96.3 ± 31.7	–	–
58.4 ± 13.8	94.4 ± 6.8	37.4 ± 14	–	–	–	–	Cc1ccc(S(=O)(=O)N(C)CC(=O)N(Cc2ccc(-c3ccc(-c4ccc(C#N)cc4)cc3)cc2)c2ccc(C(=O)O)c(O)c2)cc1 [Compound 27NG, 4-(N-((4′-cyanoterphenyl-4-yl)methyl)-2-(N,4-dimethylphenylsulfonamido)acetamido)-2-hydroxybenzoic acid]	–	32.5 ± 15.5	–	–
–	–	–	–	–	–	–	Cc1ccc(S(=O)(=O)N(C)CC(=O)N(Cc2ccc(-c3ccc(-c4ccc(C(N)=O)cc4)cc3)cc2)c2ccc(C(=O)O)c(O)c2)cc1 [Compound 27NH, 4-(N-((4″-carbamoyl-[1,1′:4′,1″-terphenyl]-4-yl)methyl)-2-(N,4-dimethylphenylsulfonamido)acetamido)-2-hydroxybenzoic acid]	16.7 ± 1.7	–	–	43 ± 1.3
35.1 ± 19.4	81.5 ± 8	33.2 ± 9.2	24 ± 2	24 ± 3	–	–	COC(=O)c1cccc(-c2ccc(-c3ccc(CN(C(=O)CN(C)S(=O)(=O)c4ccc(C)cc4)c4ccc(C(=O)O)c(O)c4)cc3)cc2)c1 [Compound 27na]	–	29 ± 2.3	–	–
85.9 ± 0.4	90.4 ± 3.1	78.5 ± 1.8	–	–	–	–	Cc1cccc(S(=O)(=O)N(C)CC(=O)N(Cc2ccc(C3CCCCC3)cc2)c2ccc(C(=O)O)c(O)c2)c1 [Compound 45A, 4-(N-(4-cyclohexylbenzyl)-2-(N,3-dimethylphenylsulfonamido)acetamido)-2-hydroxy-benzoic acid]	–	59.6 ± 4	–	–
33.3 ± 19.8	74.5 ± 30.2	76.9 ± 50.5	–	–	–	–	CN(CC(=O)N(Cc1ccc(C2CCCCC2)cc1)c1ccc(C(=O)O)c(O)c1)S(=O)(=O)c1cccc2ccccc12 [Compound 45E, 4-(N-(4-cyclohexylbenzyl)-2-(N-methylnaphthalene-1-sulfonamido)acetamido)-2-hydroxy-benzoic acid]	26.5 ± 0.4	46.5 ± 12.4	28.8 ± 2	–
> 100	> 100	> 100	–	–	–	–	CN(CC(=O)N(Cc1ccc(C2CCCCC2)cc1)c1ccc(C(=O)O)c(O)c1)S(=O)(=O)c1cccc2cccnc12 [Compound 45F, 4-(N-(4-cyclohexylbenzyl)-2-(N-methylquinoline-8-sulfonamido)acetamido)-2-hydroxy-benzoic acid]	41 ± 0.4	> 100	24.6 ± 3.4	–
> 100	> 100	74.9 ± 20.2	–	–	–	–	CN(C)c1cccc2c(S(=O)(=O)N(C)CC(=O)N(Cc3ccc(C4CCCCC4)cc3)c3ccc(C(=O)O)c(O)c3)cccc12 [Compound 45G, 4-(N-(4-cyclohexylbenzyl)-2-(5-(dimethylamino)-N-methylnaphthalene-1-sulfonamido)acetamido)-2-hydroxybenzoic acid]	–	45.5 ± 7.9	–	–
> 100	> 100	> 100	–	–	–	–	CN(CC(=O)N(Cc1ccc(C2CCCCC2)cc1)c1ccc(C(=O)O)c(O)c1)S(=O)(=O)c1cn(C)cn1 [Compound 45H, 4-(N-(4-cyclohexylbenzyl)-2-(N,1-dimethyl-1H-imidazole-4-sulfonamido)acetamido)-2-hydroxybenzoic acid]	–	> 100	–	–
53.5 ± 22.8	69.6 ± 3.4	59.1 ± 11.5	–	–	–	–	CN(CC(=O)N(Cc1ccc(C2CCCCC2)cc1)c1ccc(C(=O)O)c(O)c1)S(=O)(=O)c1ccc(C#N)cc1 [Compound 45I, 4-(2-(4-cyano-N-methylphenylsulfonamido)-N-(4-cyclohexylbenzyl)acetamido)-2-hydroxy-benzoic acid]	–	27 ± 2.7	–	–
44.9 ± 7.1	45.9 ± 8.6	47.4 ± 8.2	–	–	–	–	CN(CC(=O)N(Cc1ccc(C2CCCCC2)cc1)c1ccc(C(=O)O)c(O)c1)S(=O)(=O)c1ccc(Br)cc1 [Compound 45J]	–	19.5 ± 2	–	–
76.4 ± 10.8	67.5 ± 24.2	56.3 ± 9.3	–	–	–	–	CN(CC(=O)N(Cc1ccc(C2CCCCC2)cc1)c1ccc(C(=O)O)c(O)c1)S(=O)(=O)c1ccc(Cl)cc1 [Compound 45K, 4-(2-(4-chloro-N-methylphenylsulfonamido)-(4-cyclohexylbenzyl)acetamido)-2-hydroxy-benzoic acid]	–	29.7 ± 16.7	–	–
84.4 ± 22.1	72.7 ± 18.4	75.1 ± 25.1	–	–	–	–	CN(CC(=O)N(Cc1ccc(C2CCCCC2)cc1)c1ccc(C(=O)O)c(O)c1)S(=O)(=O)c1ccc(F)cc1 [Compound 45L, 4-(N-(4-cyclohexylbenzyl)-2-(4-fluoro-N-methylphenylsulfonamido)acetamido)-2-hydroxy benzoic acid]	–	41.3 ± 5.7	–	–
> 100	92.7 ± 27.9	> 100	–	–	–	–	COc1ccc(S(=O)(=O)N(C)CC(=O)N(Cc2ccc(C3CCCCC3)cc2)c2ccc(C(=O)O)c(O)c2)cc1 [Compound 45M, 4-(N-(4-cyclohexylbenzyl)-2-(4-methoxy-N-methylphenylsulfonamido)acetamido)-2-hydroxybenzoic acid]	–	71.4 ± 13.6	–	–
96.3 ± 18.5	> 100	99.3 ± 62.1	–	–	–	–	CN(CC(=O)N(Cc1ccc(C2CCCCC2)cc1)c1ccc(C(=O)O)c(O)c1)S(=O)(=O)c1ccc([N+](=O)[O-])cc1 [Compound 45N, 4-(N-(4-cyclohexylbenzyl)-2-(N-methyl-4-nitrophenylsulfonamido)acetamido)-2-hydroxy benzoic acid]	–	51.7 ± 14.2	–	–
–	–	–	–	–	51 ± 7	> 80	Cc1ccc(S(=O)(=O)N(CC(=O)N(Cc2ccc(C3CCCCC3)cc2)c2ccc(C(=O)O)c(O)c2)C(=O)OC(C)(C)C)cc1 [SF-1-087]	–	–	–	–
–	–	–	–	–	> 80	77 ± 5	Cc1ccc(S(=O)(=O)N(CC(=O)N(Cc2ccccc2)c2ccc(C(=O)O)c(O)c2)C(=O)OC(C)(C)C)cc1 [SF-1-088]	–	–	–	–

Structure (SMILES)	IC50 [2] [µM]	IC50 [3] [µM]	IC50 [4] [µM]	IC50 ([7]; Homo sapiens, MV4-11) [µM]	IC50 ([8]; Homo sapiens) [µM]	IC50 [7] [µM]	IC50 [8] [µM]	Ki [1] [µM]	IC50 [5] [µM]	IC50 [6, 9] [µM]	IC50 [6] [µM]
Cc1ccc(S(=O)(=O)N(C)CC(=O)N(Cc2ccc(C3CCN(S(=O)(=O)c4ccc(C#N)cc4)CC3)cc2)c2ccc(C(=O)O)c(O)c2)cc1 [Compound 27KG, 4-(N-(4-(1-((4-cyanophenyl)sulfonyl)piperidin-4-yl)benzyl)-2-(N,4-dimethylphenyl-sulfonamido)acetamido)-2-hydroxybenzoic acid]	> 100	> 100	83.1 ± 13.5	–	–	–	–	21.5 ± 2.2	94.9 ± 8.8	50 ± 15	–
CN(CC(=O)N(Cc1ccc(C2CCCCC2)cc1)c1ccc(C(=O)O)c(O)c1)S(=O)(=O)c1ccc2ccccc2c1 [Compound 45D, 4-(N-(4-cyclohexylbenzyl)-2-(N-methylnaphthalene-2-sulfonamido)acetamido)-2-hydroxy-benzoic acid]	93.5 ± 32.2	81 ± 39.3	99.8 ± 15.6	–	–	–	–	–	45.4 ± 23.2	79.2 ± 11.2	–
